Measurements as given in patent publication US20240246937A1 (MERCK SHARP & DOHME LLC, priority 2021, published 2024).

The molecules below were run against recombinant IL4I1 (Homo sapiens (Human), UniProt Q96RQ9) (assay: IL4I1 Enzymatic Assay (Amplex Red/HRP coupled fluorescence detection of H2O2)). Conditions: 240 min; recombinant IL4I1, four-hour pre-incubation with compound.
Assay type: biochemical
How it was run: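 Recombinant human IL4I1 (1 nM final) pre-incubated 4 h with compound at ambient temperature in 50 mM Hepes pH 7.0, 0.005% Tween20. Started with 1 mM each Phe/Tyr/Trp plus Amplex Red/HRP; H2O2-derived resorufin fluorescence read after 120 min; EC50 from ten-point 1:3 titration, four-parameter fit.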

recombinant IL4I1, sequence (Q96RQ9 22-567): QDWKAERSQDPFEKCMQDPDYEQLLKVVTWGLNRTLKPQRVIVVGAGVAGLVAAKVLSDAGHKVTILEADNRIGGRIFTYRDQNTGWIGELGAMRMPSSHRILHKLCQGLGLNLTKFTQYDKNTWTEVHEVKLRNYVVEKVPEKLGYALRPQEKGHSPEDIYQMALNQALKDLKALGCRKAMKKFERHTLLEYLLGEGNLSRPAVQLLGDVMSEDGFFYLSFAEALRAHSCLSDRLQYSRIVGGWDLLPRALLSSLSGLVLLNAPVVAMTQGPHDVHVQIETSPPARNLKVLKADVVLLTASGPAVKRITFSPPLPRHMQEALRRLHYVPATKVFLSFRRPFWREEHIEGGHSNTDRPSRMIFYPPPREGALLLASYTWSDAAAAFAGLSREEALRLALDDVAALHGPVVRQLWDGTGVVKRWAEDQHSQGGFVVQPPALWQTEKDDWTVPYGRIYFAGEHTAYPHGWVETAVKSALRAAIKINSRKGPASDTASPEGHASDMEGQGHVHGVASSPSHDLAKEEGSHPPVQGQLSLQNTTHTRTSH

With `O=c1c(=O)n(C2CCCC2)ccn1Cc1cnc(-c2ccccc2)cn1` [Example 126, 1-cyclopentyl-4-((5-phenylpyrazin-2-yl)methyl)-1,4-dihydropyrazine-2,3-dione] as the molecule, how does the EC50 read?
Its EC50 is 3 nM.

For `O=c1c(=O)n(C2CCC2)ccn1Cc1cnc(-c2ccccc2)cn1` [Example 127, 1-cyclobutyl-4-((5-phenylpyrazin-2-yl)methyl)-1,4-dihydropyrazine-2,3-dione], which EC50 is on record?
The EC50 was 3 nM.

For `O=c1c(=O)n([C@H]2C[C@H]3C[C@H]3C2)ccn1Cc1cnc(-c2ccccc2)c(F)c1` [Example 128, 1-((cis)-bicyclo[3.1.0]hexan-3-yl)-4-((5-fluoro-6-phenylpyridin-3-yl)methyl)-1,4-dihydropyrazine-2,3-dione], which EC50 is on record?
Its EC50 is 2 nM.

Which EC50 does the source give for `O=C1C(=O)N([C@H]2C[C@H]3C[C@H]3C2)CCN1Cc1cnc(-c2ccccc2)cn1` [Example 129, 1-((cis)-bicyclo[3.1.0]hexan-3-yl)-4-((5-phenylpyrazin-2-yl)methyl)piperazine-2,3-dione] here?
Its EC50 is 6 nM.

How did the EC50 turn out when `O=c1c(=O)n(C2CCC2)ccn1Cc1cnc(-c2ccccc2)nc1` [Example 130, 1-cyclobutyl-4-((2-phenylpyrimidin-5-yl)methyl)-1,4-dihydropyrazine-2,3-dione] was run?
Its EC50 is 5 nM.

For `O=C1C(=O)N([C@H]2C[C@H]3C[C@H]3C2)CCN1Cc1cnc(-c2ccccc2)c(F)c1` [Example 131, 1-((cis)-bicyclo[3.1.0]hexan-3-yl)-4-((5-fluoro-6-phenylpyridin-3-yl)methyl)piperazine-2,3-dione], which EC50 is on record?
The EC50 was 9 nM.

Which EC50 does the source give for `O=C1C(=O)N(C2CCCC2)CCN1CC12CC(c3ccccc3)(C1)C2` [Example 132, 1-cyclopentyl-4-((3-phenylbicyclo[1.1.1]pentan-1-yl)methyl)piperazine-2,3-dione] here?
The EC50 was 15 nM.

Which EC50 does the source give for `O=C1C(=O)N(C2CCC2)CCN1Cc1nnc(-c2ccccc2)s1` [Example 135, 1-cyclobutyl-4-((5-phenyl-1,3,4-thiadiazol-2-yl)methyl)piperazine-2,3-dione] here?
The EC50 was 6 nM.

How did the EC50 turn out when `O=C1C(=O)N(C2CCC2)CCN1Cc1ccc(-n2nccn2)cn1` [Example 136, 1-((5-(2H-1,2,3-triazol-2-yl)pyridin-2-yl)methyl)-4-cyclobutylpiperazine-2,3-dione] was run?
Its EC50 is 20 nM.

`O=c1c(=O)n(C2CCC2)ccn1Cc1ccc(-c2ccccc2)nn1` [Example 137, 1-cyclobutyl-4-((6-phenylpyridazin-3-yl)methyl)-1,4-dihydropyrazine-2,3-dione] was tested. Which EC50 did it give?
Its EC50 is 6 nM.

With `O=C1C(=O)N(C2CCC2)CCN1Cc1cc(-c2ccccn2)on1` [Example 138, 1-cyclobutyl-4-((5-(pyridin-2-yl)isoxazol-3-yl)methyl)piperazine-2,3-dione] as the molecule, how does the EC50 read?
The EC50 was 12 nM.

How did the EC50 turn out when `O=C1C(=O)N(C2CCCC2)CCN1Cc1ncc(-c2nccs2)cc1F` [Example 139, 1-cyclopentyl-4-((3-fluoro-5-(thiazol-2-yl)pyridin-2-yl)methyl)piperazine-2,3-dione] was run?
The EC50 was 26 nM.

How did the EC50 turn out when `O=C1C(=O)N(C2CCCC2)CCN1Cc1ccc(-n2nccn2)cc1` [Example 140, 1-(4-(2H-1,2,3-triazol-2-yl)benzyl)-4-cyclopentylpiperazine-2,3-dione] was run?
Its EC50 is 36 nM.

`O=C1C(=O)N(C2CC(c3ccccc3)C2)CCN1Cc1ncc(-c2ccccc2)cn1` (stereo not drawn) [Example 141, 1-(3-phenylcyclobutyl)-4-((5-phenylpyrimidin-2-yl)methyl)piperazine-2,3-dione] was tested. Which EC50 did it give?
Its EC50 is 23 nM.

For `O=C1C(=O)N(C2CC(c3ccccc3)C2)CCN1Cc1ccc(-c2ccccc2)nc1` (stereo not drawn) [Example 142, 1-(3-phenylcyclobutyl)-4-((6-phenylpyridin-3-yl)methyl)piperazine-2,3-dione], which EC50 is on record?
Its EC50 is 3 nM.

With `O=c1c(=O)n(C2CCC2)ccn1Cc1ncc(-c2ccccc2)cn1` [Example 143, 1-cyclobutyl-4-((5-phenylpyrimidin-2-yl)methyl)-1,4-dihydropyrazine-2,3-dione] as the molecule, how does the EC50 read?
Its EC50 is 15 nM.

`O=c1c(=O)n(C23CC(C2)C3)ccn1Cc1nnc(-c2cccc(F)c2)s1` [Example 144, 1-(bicyclo[1.1.1]pentan-1-yl)-4-((5-(3-fluorophenyl)-1,3,4-thiadiazol-2-yl)methyl)-1,4-dihydropyrazine-2,3-dione] was tested. Which EC50 did it give?
The EC50 was 2 nM.

With `O=c1c(=O)n(C2CCCC2)ccn1Cc1nnc(-c2cccc(F)c2)s1` [Example 145, 1-cyclopentyl-4-((5-(3-fluorophenyl)-1,3,4-thiadiazol-2-yl)methyl)-1,4-dihydropyrazine-2,3-dione] as the molecule, how does the EC50 read?
The EC50 was 1 nM.

`O=C1C(=O)N(C23CC(C2)C3)CCN1Cc1cc(-c2ccccc2)on1` [Example 146, 1-(bicyclo[1.1.1]pentan-1-yl)-4-((5-phenylisoxazol-3-yl)methyl)piperazine-2,3-dione] was tested. Which EC50 did it give?
Its EC50 is 3 nM.

`O=c1c(=O)n(C23CC(C2)C3)ccn1Cc1cc(-c2ccccc2)on1` [Example 147, 1-(bicyclo[1.1.1]pentan-1-yl)-4-((5-phenylisoxazol-3-yl)methyl)-1,4-dihydropyrazine-2,3-dione] was tested. Which EC50 did it give?
Its EC50 is 2 nM.

How did the EC50 turn out when `O=C1C(=O)N(C2CCC2)CCN1Cc1cc(-c2ccccc2)no1` [Example 148, 1-cyclobutyl-4-((3-phenylisoxazol-5-yl)methyl)piperazine-2,3-dione] was run?
The EC50 was 2 nM.

Which EC50 does the source give for `O=C1C(=O)N(C2CCC2)CCN1Cc1cc(-c2ccccc2F)no1` [Example 149, 1-cyclobutyl-4-((3-(2-fluorophenyl)isoxazol-5-yl)methyl)piperazine-2,3-dione] here?
Its EC50 is 3 nM.

Which EC50 does the source give for `O=C1C(=O)N(C2CCC2)CCN1Cc1cc(-c2ccc(F)cc2)no1` [Example 150, 1-cyclobutyl-4-((3-(4-fluorophenyl)isoxazol-5-yl)methyl)piperazine-2,3-dione] here?
Its EC50 is 3 nM.

With `O=c1c(=O)n(C2CCC2)ccn1Cc1cc(-c2ccccc2)no1` [Example 151, 1-cyclobutyl-4-((3-phenylisoxazol-5-yl)methyl)-1,4-dihydropyrazine-2,3-dione] as the molecule, how does the EC50 read?
Its EC50 is 1 nM.

Which EC50 does the source give for `O=c1c(=O)n(C2CCC2)ccn1Cc1cc(-c2ccccc2F)no1` [Example 152, 1-cyclobutyl-4-((3-(2-fluorophenyl)isoxazol-5-yl)methyl)-1,4-dihydropyrazine-2,3-dione] here?
The EC50 was 2 nM.

With `O=C1C(=O)N(C2CCCC2)CCN1Cc1cc(-c2cccc(F)c2)no1` [Example 153, 1-cyclopentyl-4-((3-(3-fluorophenyl)isoxazol-5-yl)methyl)piperazine-2,3-dione] as the molecule, how does the EC50 read?
The EC50 was 3 nM.

For `O=C1C(=O)N(C2CCCC2)CCN1Cc1cc(-c2ccccc2F)no1` [Example 154, 1-cyclopentyl-4-((3-(2-fluorophenyl)isoxazol-5-yl)methyl)piperazine-2,3-dione], which EC50 is on record?
Its EC50 is 3 nM.

With `O=c1c(=O)n(C2CCCC2)ccn1Cc1cc(-c2cccc(F)c2)no1` [Example 155, 1-cyclopentyl-4-((3-(3-fluorophenyl)isoxazol-5-yl)methyl)-1,4-dihydropyrazine-2,3-dione] as the molecule, how does the EC50 read?
The EC50 was 2 nM.

`O=c1c(=O)n(C2CCCC2)ccn1Cc1cc(-c2ccccc2F)no1` [Example 156, 1-cyclopentyl-4-((3-(2-fluorophenyl)isoxazol-5-yl)methyl)-1,4-dihydropyrazine-2,3-dione] was tested. Which EC50 did it give?
Its EC50 is 2 nM.

With `O=c1c(=O)n(C2CCC2)ccn1Cc1cc(-c2cccc(F)c2)no1` [Example 157, 1-cyclobutyl-4-((3-(3-fluorophenyl)isoxazol-5-yl)methyl)-1,4-dihydropyrazine-2,3-dione] as the molecule, how does the EC50 read?
The EC50 was 1 nM.
